Experimental data published in BindingDB's records for doi:10.1111/j.1747-0285.2011.01199.x (Sanford-Burnham Medical Research Institute, 2011).

Target: T1, Ephrin type-A receptor 4 [1-949,A922V] (Homo sapiens, UniProt P54764, A922V)
T1 construct: 1-949
Assay: Enzyme-linked Immunosorbent Assay
Details: pH 7.5
Procedure: Protein A-coasted wells (from Pierce Biotechnology) were used to immobilize Eph receptor Fc fusion proteins (from R&D systems)incubated at 1 ug/ml in TBST.

Row | Compound | IC50 [µM]
1 | Cc1ccc(C)n1-c1ccc(C(=O)O)c(O)c1 [4-(2,5-dimethyl-1H-pyrrol-1-yl)-2-hydroxybenzoic acid] | 1.3
2 | O=C(O)/C=C/c1ccc(-c2ccc(O)c(C(=O)O)c2)o1 [Salicylic acid derivative, 76A5] | > 500
3 | Cc1ccc(C)n1-c1ccc(O)c(C(=O)O)c1 [Salicylic acid derivative, compound 2] | 10

Other lines, results leading:

Row | IC50 [µM] | Compound
4 | > 500 | O=C(O)c1ccc(-c2ccc(O)c(C(=O)O)c2)o1 [Salicylic acid derivative, 76B8]
5 | 2.6 | O=C(/C=C/c1ccc(-c2ccc(O)c(C(=O)O)c2)o1)/C=C/c1ccc(-c2ccc(O)c(C(=O)O)c2)o1 [Salicylic acid derivative, 76D10]
